The source of these data is ChEMBL document CHEMBL5316287 (J Med Chem, 2023).

In series [1] the target is T1, Histone acetyltransferase p300 (Homo sapiens, UniProt Q09472). Briefly: Inhibition of EP300 in human LK2 cells assessed as reduction in intracellular H3K27 acetylation incubated for 3 hrs by chemiluminescence based ELISA. The series is classed as cell-based. In general terms: ELISA stands for enzyme-linked immunosorbent assay.
Series [2] can be described thus: AUC in BALB/cAnNCrlCrlj mouse at 10 mg/kg,po. The series is classed as ADME, organism-based. The settings on record: in vivo. Also noted: dose 10 mg/kg, route po.
Series [3] is described as follows: 1-Octanol/PBS partition coefficient, logD of the compound at pH 7.4 incubated for 30 mins by shake flask technique based HPLC-LC/MS analysis. The format is physicochemical.
The target of series [4] is T1, Histone acetyltransferase p300. Description: Inhibition of recombinant human full length EP300 assessed as inhibition of H4 peptide acetylation using biotinylated H4 peptide as substrate in presence of Acetyl-CoA incubated for 60 mins by TR-FRET assay. On the technique in general: TR-FRET usually uses a lanthanide donor and a delayed reading to cut background.
The nature of series [5]: Cmax in BALB/cAnNCrlCrlj mouse at 10 mg/kg,po. The series is classed as ADME, organism-based. Also noted: dose 10 mg/kg, route po. The settings on record: in vivo.
A short description of series [6]: Half life in BALB/cAnNCrlCrlj mouse at 10 mg/kg,po. The format is ADME, organism-based. The settings on record: in vivo.
Series [7] can be described thus: Unbound clearance in BALB/cAnNCrlCrlj mouse at 1 mg/kg,iv administered as DMS0/10% SBE-7-betaCD (1:9 ratio) solution. The series is classed as ADME, organism-based. The settings on record: in vivo.
Series [8] is described as follows: Metabolic stability in mouse liver microsomes assessed as intrinsic clearance at 1 uM. The format is ADME, Microsome. (In general: Liver microsomes are a subcellular fraction often used to study metabolism.)
A short description of series [9]: Metabolic stability in human liver microsomes assessed as intrinsic clearance at 1 uM. The format is ADME, Microsome.
Series [10] can be described thus: Oral bioavailability in BALB/cAnNCrlCrlj mouse at 10 mg/kg. The format is ADME, organism-based. The settings on record: in vivo; for F: po, 10 mg/kg.
Series [11] in a line: Volume of distribution at steady state in BALB/cAnNCrlCrlj mouse at 1 mg/kg,iv administered as DMS0/10% SBE-7-betaCD (1:9 ratio) solution. The format is ADME, organism-based. The settings on record: in vivo, read-out: Vdss.
Series [12] can be described thus: Unbound AUC in BALB/cAnNCrlCrlj mouse at 10 mg/kg,po. The format is ADME, organism-based. The settings on record: in vivo.
Series [13] in a line: Unbound clearance in BALB/cAnNCrlCrlj mouse at 2 mg/kg,iv administered as DMA/Tween80/saline (1:1:8 ratio) solution. The format is ADME, organism-based. The settings on record: in vivo.
Series [14] is described as follows: Volume of distribution at steady state in BALB/cAnNCrlCrlj mouse at 2 mg/kg,iv administered as DMA/Tween80/saline (1:1:8 ratio) solution. The format is ADME, organism-based. The settings on record: in vivo, read-out: Vdss.
Series [15] is described as follows: Volume of distribution at steady state in BALB/cAnNCrlCrlj mouse at 1 mg/kg,iv administered as DMA/Tween80/saline (1:1:8 ratio) solution. The series is classed as ADME, organism-based. The settings on record: in vivo, read-out: Vdss.
Series [16] can be described thus: Unbound clearance in BALB/cAnNCrlCrlj mouse at 1 mg/kg,iv administered as DMA/Tween80/saline (1:1:8 ratio) solution. The settings on record: in vivo. The format is ADME, organism-based.
Series [17] in a line: Clearance in BALB/cAnNCrlCrlj mouse at 1 mg/kg,iv administered as DMA/Tween80/saline (1:1:8 ratio) solution. The series is classed as ADME, organism-based. The settings on record: in vivo.
Where [18] appears, read: BALB/cAnNCrlCrlj, read-out: AUC.

The term IC50 denotes the concentration that inhibits the measured activity by half. As a reminder, the AUC is the area under the concentration-time curve, a measure of exposure. As usually defined, the logD is the decadic logarithm of the distribution of all forms, ionised or not, between an organic phase and buffer at a given pH. Read a high logD as higher lipophilicity. The Cmax is the peak of the concentration-time curve. Usually half-life stands for the time needed for the level to fall by half in the phase considered. Read a low half-life as rapid decline. As a reminder, the bioavailability is the share of a dose that reaches the circulation, judged against a reference dose that is usually intravenous. As a reminder, the clearance is the volume of plasma or blood freed of the substance per unit of time.

T1 sequence (Q09472 whole entry): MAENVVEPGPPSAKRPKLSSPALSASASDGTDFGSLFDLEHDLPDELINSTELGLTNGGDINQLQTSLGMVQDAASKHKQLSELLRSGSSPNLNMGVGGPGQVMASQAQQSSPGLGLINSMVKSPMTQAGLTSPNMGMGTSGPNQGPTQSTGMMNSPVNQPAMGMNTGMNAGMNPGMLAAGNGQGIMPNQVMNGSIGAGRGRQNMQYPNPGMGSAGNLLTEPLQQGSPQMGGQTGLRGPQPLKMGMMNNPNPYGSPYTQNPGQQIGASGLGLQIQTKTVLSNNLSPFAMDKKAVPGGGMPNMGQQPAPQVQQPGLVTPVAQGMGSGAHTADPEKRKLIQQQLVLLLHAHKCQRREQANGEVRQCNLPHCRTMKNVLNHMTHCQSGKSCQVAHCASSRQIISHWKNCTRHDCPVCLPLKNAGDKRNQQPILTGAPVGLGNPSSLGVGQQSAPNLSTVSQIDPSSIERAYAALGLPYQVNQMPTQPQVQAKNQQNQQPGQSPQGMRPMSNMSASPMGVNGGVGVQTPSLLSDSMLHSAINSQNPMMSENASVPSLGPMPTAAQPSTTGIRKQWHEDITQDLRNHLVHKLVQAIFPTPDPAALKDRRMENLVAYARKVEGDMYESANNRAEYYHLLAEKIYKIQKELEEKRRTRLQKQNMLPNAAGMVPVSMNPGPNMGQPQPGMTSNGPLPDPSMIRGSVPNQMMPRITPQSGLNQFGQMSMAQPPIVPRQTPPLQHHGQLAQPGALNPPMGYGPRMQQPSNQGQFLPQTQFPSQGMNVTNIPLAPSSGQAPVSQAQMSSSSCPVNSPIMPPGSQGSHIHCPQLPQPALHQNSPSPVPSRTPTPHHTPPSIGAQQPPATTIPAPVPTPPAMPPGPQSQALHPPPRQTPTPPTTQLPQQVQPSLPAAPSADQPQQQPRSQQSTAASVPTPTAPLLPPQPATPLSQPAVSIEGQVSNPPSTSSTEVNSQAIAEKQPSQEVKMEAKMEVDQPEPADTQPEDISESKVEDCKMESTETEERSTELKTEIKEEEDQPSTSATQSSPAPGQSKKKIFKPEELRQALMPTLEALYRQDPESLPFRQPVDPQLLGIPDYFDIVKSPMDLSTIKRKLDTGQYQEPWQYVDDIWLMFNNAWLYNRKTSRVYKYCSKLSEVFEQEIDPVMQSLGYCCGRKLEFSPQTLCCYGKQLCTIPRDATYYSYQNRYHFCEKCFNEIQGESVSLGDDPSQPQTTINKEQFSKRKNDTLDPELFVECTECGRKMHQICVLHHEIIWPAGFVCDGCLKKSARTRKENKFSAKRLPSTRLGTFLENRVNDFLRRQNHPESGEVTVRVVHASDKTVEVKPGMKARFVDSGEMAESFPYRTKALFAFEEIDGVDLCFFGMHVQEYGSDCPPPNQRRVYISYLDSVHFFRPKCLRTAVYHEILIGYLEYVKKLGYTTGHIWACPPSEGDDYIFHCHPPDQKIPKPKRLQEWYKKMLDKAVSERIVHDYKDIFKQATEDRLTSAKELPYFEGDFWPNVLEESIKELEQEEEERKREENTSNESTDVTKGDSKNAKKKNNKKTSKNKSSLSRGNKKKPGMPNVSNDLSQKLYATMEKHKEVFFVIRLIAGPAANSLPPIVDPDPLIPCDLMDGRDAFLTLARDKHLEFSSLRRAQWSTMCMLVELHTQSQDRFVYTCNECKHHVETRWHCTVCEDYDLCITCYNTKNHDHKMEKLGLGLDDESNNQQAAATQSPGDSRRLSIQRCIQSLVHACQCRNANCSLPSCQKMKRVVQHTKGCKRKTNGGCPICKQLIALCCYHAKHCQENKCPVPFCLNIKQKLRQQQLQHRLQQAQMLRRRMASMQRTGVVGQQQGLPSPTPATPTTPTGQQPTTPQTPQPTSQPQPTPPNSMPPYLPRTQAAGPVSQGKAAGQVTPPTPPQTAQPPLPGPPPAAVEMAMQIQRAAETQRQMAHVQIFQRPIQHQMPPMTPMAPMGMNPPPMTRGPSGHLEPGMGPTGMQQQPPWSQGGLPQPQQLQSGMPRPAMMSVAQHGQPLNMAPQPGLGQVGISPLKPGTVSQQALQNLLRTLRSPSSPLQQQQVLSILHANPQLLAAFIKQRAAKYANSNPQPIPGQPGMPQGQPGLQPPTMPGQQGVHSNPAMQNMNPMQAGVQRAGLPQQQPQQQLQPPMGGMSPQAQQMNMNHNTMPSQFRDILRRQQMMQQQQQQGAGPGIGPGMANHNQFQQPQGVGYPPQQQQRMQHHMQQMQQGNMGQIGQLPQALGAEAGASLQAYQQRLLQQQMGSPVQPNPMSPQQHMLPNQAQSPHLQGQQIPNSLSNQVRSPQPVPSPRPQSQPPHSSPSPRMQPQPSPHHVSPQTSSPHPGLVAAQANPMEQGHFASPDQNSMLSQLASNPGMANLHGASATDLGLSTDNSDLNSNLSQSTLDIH

`CS(=O)(=O)c1ccc(C2(C(=O)N3C[C@H](F)C[C@@H]3C(=O)Nc3ccc4[nH]ncc4n3)CCC(F)(F)CC2)cc1`: the IC50 in series [1] came to 95 nM; in [4], 55 nM. For the same compound, the AUC in series [2] (setting [18]) turned out to be 0.23 µM·h. Besides, the logD at 0.5 h in series [3] was determined as 1.6. Besides, the highest level in series [5] (Cmax) was 90 nM. The same compound showed a half-life in [6] of 1.5 h.
For the compound `COc1ccc(C2(C(=O)N3CCC[C@@H]3C(=O)Nc3ccc4[nH]ccc4c3)CCCC2)cc1`, the IC50 in [1] worked out at 709 nM.
On the same count and under the same terms, in the case of `COc1ccc(C2(C(=O)N3CCC[C@@H]3C(=O)Nc3cccc4[nH]ccc34)CCCC2)cc1` it was 304 nM; in that of `COc1ccc(C2(C(=O)N3CCC[C@@H]3C(=O)Nc3ccc4[nH]ncc4c3)CCCC2)cc1`, 916 nM.
`COc1ccc(C2(C(=O)N3C[C@H](F)C[C@@H]3C(=O)Nc3ccc4[nH]ncc4n3)CCCCC2)cc1`: the CL free in series [7] came out at 133 mL/min/kg. Also, the “intrinsic clearance (CLint)” value in [8] came to 770 µL/min/mg. Moreover, the AUC in series [2] was found to be 15 µM·h. In addition, the logD at 0.5 h in [3] came to 3.1. In addition, the intrinsic clearance in series [9] turned out to be 310 µL/min/mg. This compound also registered a F in [10] of 2.2%. The same compound displayed a Cmax in series [5] of 10800 nM. Besides, in series [11], the Vd worked out at 0.29 L/kg. The compound also came in with a fAUC in [12] of 0.6 µM·h. The compound further had a half-life in series [6] of 1.4 h.
In the case of `COc1ccc(C(C)(C)C(=O)N2C[C@H](F)C[C@@H]2C(=O)Nc2ccc3[nH]ncc3n2)cc1`, the “intrinsic clearance (CLint)” value in series [8] is 380 µL/min/mg. Moreover, the IC50 in series [1] was found to be 77 nM. The compound further returned a logD at 0.5 h in [3] of 1.9. In series [9], the intrinsic clearance stood at 10 µL/min/mg.
In the same order, the values of `COc1ccc(C2(C(=O)N3C[C@H](F)C[C@@H]3C(=O)Nc3ccc4[nH]ncc4n3)CCCCC2)cn1` are 160 µL/min/mg, 15 nM, 2.3 and 110 µL/min/mg.
With `COc1ccc(C2(C(=O)N3CCC[C@@H]3C(=O)Nc3ccc4cn[nH]c4c3)CCCC2)cc1`, the IC50 in [1] came out at 2790 nM; in series [4], 500 nM.
Turning to `COc1ccc(C2(C(=O)N3CCOCC(Cc4cccc5[nH]ncc45)C3)CCCC2)cc1` (stereo not given), in series [13], the CL free is 1740 mL/min/kg. The compound further had an AUC in [2] of 0.1 µM·h. The same compound showed a F in [10] of 31%. This compound displayed a Cmax in series [5] of 80 nM. In series [12], this compound showed a fAUC of 0.006 µM·h. This compound had a half-life in series [6] of 2 h. In addition, the Vd in series [14] turned out to be 1.76 L/kg.
Regarding `COc1ccc(C2(C(=O)N3CCC[C@@H]3C(=O)Nc3cccc4[nH]ncc34)CCCC2)cc1`, the AUC in series [2] (setting [18]) is 0.42 µM·h. The compound also displayed a Cmax in series [5] of 320 nM. In series [12], this compound showed a fAUC of 0.029 µM·h. For the same compound, the half-life in [6] is 0.6 h.
As to `COc1ccc(C2(C(=O)N3C[C@H](F)C[C@@H]3C(=O)Nc3ccc4[nH]ncc4n3)CCCCC2)cc1F`, the “intrinsic clearance (CLint)” value in series [8] was found to be 400 µL/min/mg. The Vd in [15] was found to be 0.15 L/kg. For the same compound, the CL free in series [16] worked out at 76 mL/min/kg. The IC50 in series [1] stood at 16 nM. For the same compound, the AUC in series [2] (setting [18]) was 16.8 µM·h. Further, the logD at 0.5 h in series [3] came to 3.1. Moreover, the intrinsic clearance in [9] turned out to be 230 µL/min/mg. Besides, the bioavailability in series [10] (BALB/cAnNCrlCrlj) is 62%. In [5], the peak level (Cmax) was 12700 nM. Further, the fAUC in [12] came to 1.39 µM·h. Besides, the half-life in series [6] is 1.2 h. Besides, the clearance in series [17] came to 6.3 mL/min/kg.
Turning to `COc1ccc(C2(C(=O)N3C[C@H](F)C[C@@H]3C(=O)Nc3ccc4[nH]ncc4n3)CCC(F)(F)CC2)cc1F`, the results for the IC50 in series [1] and in series [4] were 57 nM and 36 nM, respectively. This compound also returned a logD at 0.5 h in series [3] of 3. The intrinsic clearance in series [9] is 40 µL/min/mg.
Regarding `COc1ccc(C2(C(=O)N3C[C@H](F)C[C@@H]3C(=O)Nc3ccc4[nH]ncc4n3)CC(F)(F)C2)cc1`, the “intrinsic clearance (CLint)” value in [8] turned out to be 120 µL/min/mg. For the same compound, in [1], the 50% inhibitory concentration (IC50) is 20 nM. Further, the AUC in [2] (setting [18]) is 2.29 µM·h. The compound further returned a logD at 0.5 h in [3] of 2.1. The intrinsic clearance in [9] came to 40 µL/min/mg. This compound also came in with a Cmax in [5] of 1610 nM. In series [12], the fAUC turned out to be 0.268 µM·h. This compound also had a half-life in series [6] of 2.1 h.
As to `COc1ccc(C2(C(=O)N3C[C@H](F)C[C@@H]3C(=O)Nc3ccc4[nH]ncc4n3)CCOCC2)cc1`, the “intrinsic clearance (CLint)” value in series [8] worked out at 50 µL/min/mg. The IC50 in [1] is 101 nM. This compound also gave a logD at 0.5 h in series [3] of 1.6. In addition, the intrinsic clearance in series [9] is 10 µL/min/mg.
Regarding `COc1c(F)cc(C2(C(=O)N3C[C@H](F)C[C@@H]3C(=O)Nc3ccc4[nH]ncc4n3)CCC(F)(F)CC2)cc1F`, the IC50 in [1] turned out to be 142 nM. In [3], the logD at 0.5 h stood at 3.2. Moreover, the intrinsic clearance in series [9] was found to be 60 µL/min/mg.
For `COc1ccc(C2(C(=O)N3CS(=O)(=O)C[C@@H]3C(=O)Nc3ccc4[nH]ncc4n3)CCCCC2)cc1`, the half-maximal inhibitory concentration (IC50) in series [1] was 27 nM.
`O=C(Nc1ccc2[nH]ncc2n1)[C@H]1C[C@@H](F)CN1C(=O)C1(c2ccc(O)cc2)CCCCC1`: the IC50 in series [1] came out at 13 nM. Moreover, in series [2] (setting [18]), the AUC stood at 0.87 µM·h. In addition, in series [3], the logD at 0.5 h turned out to be 2.7. The intrinsic clearance in [9] is 140 µL/min/mg. In [5], this compound gave a Cmax of 340 nM. The compound also gave a half-life in [6] of 2.8 h.
As for `O=C(Nc1ccc2[nH]ncc2n1)[C@H]1C[C@@H](F)CN1C(=O)C1(c2ccc(C(=O)C(F)(F)F)cc2)CCCCC1`, the “intrinsic clearance (CLint)” value in series [8] is 380 µL/min/mg. Further, in [1], the IC50 is 21 nM. In [3], the pH-dependent lipophilicity (logD) at 0.5 h came to 3.4. In addition, the intrinsic clearance in series [9] worked out at 150 µL/min/mg.
`COc1ccc(C2(C(=O)N3C[C@H](F)C[C@@H]3C(=O)Nc3ccc4[nH]ncc4n3)CC(C)(C)C2)cc1`: the “intrinsic clearance (CLint)” value in [8] worked out at 240 µL/min/mg. The IC50 in series [1] worked out at 53 nM. In series [3], this compound yielded a logD at 0.5 h of 3.1. The intrinsic clearance in [9] was 100 µL/min/mg.
Turning to `COc1ccc(C2(C(=O)N3C[C@H](O)C[C@@H]3C(=O)Nc3ccc4[nH]ncc4n3)CCCCC2)cc1`, the IC50 was 106 nM in series [1] and 50 nM in series [4].
In the same order, the values of `COc1ccc(C2(C(=O)N3CCC[C@@H]3C(=O)Nc3ccc4[nH]ncc4n3)CCCC2)cc1` are 52 nM and 24 nM.
